Literature values in publication PMC9499927, “Peptidomimetics designed to bind to RAS effector domain are promising cancer therapeutic compounds” (Scientific Reports, 2022).

Experiments:
[1] = test system: KRAS-mutant colon and pancreatic cancer mouse models
From the text: (§1) The unclear results obtained using these experimental approaches has led the scientific community to refocus on the search for direct RAS inhibitors. With this objective, two strategies are currently being followed: the first involves searching for molecules that block the interaction with non-effector RAS proteins that bind to the HVR and/or the allosteric lobe and which modulate RAS activity; and the second is looking for drugs that inhibit the binding of RAS with its effectors[20],[21]. In this context, Rigosertib, a compound that binds to the Ras-binding domain of multiple RAS effector ...

[2] = test system: Ras-binding domain of multiple RAS effectors
From the text: as §1

[3] = test system: patients with previously untreated metastatic pancreatic cancer; conditions: randomized phase 2/3 trial
From the text: as §1

SMILES: COc1cc(OC)c(/C=C/S(=O)(=O)Cc2ccc(OC)c(NCC(=O)O)c2)c(OC)c1 [Rigosertib]
- Tumour growth inhibition [1]: proven to inhibit tumour growth
- Binding [2]: binds to the Ras-binding domain of multiple RAS effectors
- Clinical benefit of addition to gemcitabine [3]: no benefit
